# From PubChem BioAssay (NCI)
#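 Compound exposure: 48 hours, 5 concentrations, 96-well plates. At the TGI there is no net growth.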
# Key:
# Test in all cases: DTP human tumour cell line panel, 48 h
# CAKI-1 renal = test system: CAKI-1 renal
# SN12C renal = test system: SN12C renal
# HT29 colon = test system: HT29 colon
# HOP-18 NSCLC = test system: HOP-18 NSCLC
# HOP-92 NSCLC = test system: HOP-92 NSCLC
# MOLT-4 leukemia = test system: MOLT-4 leukemia
# M14 melanoma = test system: M14 melanoma
# 786-0 renal = test system: 786-0 renal
# OVCAR-4 ovarian = test system: OVCAR-4 ovarian
# ACHN renal = test system: ACHN renal
# DMS 114 small cell lung = test system: DMS 114 small cell lung
# M19-MEL melanoma = test system: M19-MEL melanoma
# UO-31 renal = test system: UO-31 renal
# KM12 colon = test system: KM12 colon
# OVCAR-5 ovarian = test system: OVCAR-5 ovarian
# HCT-116 colon = test system: HCT-116 colon
# IGROV1 ovarian = test system: IGROV1 ovarian
# EKVX NSCLC = test system: EKVX NSCLC
# HCT-15 colon = test system: HCT-15 colon
# DMS 273 small cell lung = test system: DMS 273 small cell lung
# HCC-2998 colon = test system: HCC-2998 colon
# UACC-257 melanoma = test system: UACC-257 melanoma
# NCI-H460 lung = test system: NCI-H460 lung
# COLO 205 colon = test system: COLO 205 colon
# SF-268 CNS = test system: SF-268 CNS
# SW-620 colon = test system: SW-620 colon
# LXFL 529 NSCLC = test system: LXFL 529 NSCLC
# NCI-H522 lung = test system: NCI-H522 lung
# HOP-62 NSCLC = test system: HOP-62 NSCLC
# A498 renal = test system: A498 renal
# SK-MEL-2 melanoma = test system: SK-MEL-2 melanoma
# OVCAR-3 ovarian = test system: OVCAR-3 ovarian
# SF-539 CNS = test system: SF-539 CNS
# SK-MEL-28 melanoma = test system: SK-MEL-28 melanoma
# U251 CNS = test system: U251 CNS
# UACC-62 melanoma = test system: UACC-62 melanoma
# KM20L2 colon = test system: KM20L2 colon
# NCI-H23 lung = test system: NCI-H23 lung
# MALME-3M melanoma = test system: MALME-3M melanoma
# SK-OV-3 ovarian = test system: SK-OV-3 ovarian
# RPMI-8226 leukemia = test system: RPMI-8226 leukemia
# SNB-19 CNS = test system: SNB-19 CNS
# SNB-75 CNS = test system: SNB-75 CNS
# OVCAR-8 ovarian = test system: OVCAR-8 ovarian
# TK-10 renal = test system: TK-10 renal
# SF-295 CNS = test system: SF-295 CNS
# DLD-1 colon = test system: DLD-1 colon
# K-562 leukemia = test system: K-562 leukemia
# A549 NSCLC = test system: A549 NSCLC
# SNB-78 CNS = test system: SNB-78 CNS
# CCRF-CEM leukemia = test system: CCRF-CEM leukemia
# SK-MEL-5 melanoma = test system: SK-MEL-5 melanoma
# SR leukemia = test system: SR leukemia
# LOX IMVI melanoma = test system: LOX IMVI melanoma
# HL-60(TB) leukemia = test system: HL-60(TB) leukemia
# NCI-H226 lung = test system: NCI-H226 lung
# RXF 393 renal = test system: RXF 393 renal
# BT-549 breast = test system: BT-549 breast
# T-47D breast = test system: T-47D breast
# MCF7 breast = test system: MCF7 breast
# PC-3 prostate = test system: PC-3 prostate
# MDA-MB-435 = test system: MDA-MB-435
# HS 578T breast = test system: HS 578T breast
# DU-145 prostate = test system: DU-145 prostate
# MDA-MB-231 breast = test system: MDA-MB-231 breast
# MDA-N = test system: MDA-N
# NCI/ADR-RES ovarian = test system: NCI/ADR-RES ovarian
smiles,measurement,setting,value
C=CCN(C)CN(C)c1nc(N(C)C)nc(N(C)C)n1,TGI,CAKI-1 renal,> 100 µM
same,TGI,SN12C renal,> 100 µM
same,TGI,HT29 colon,> 100 µM
same,TGI,HOP-18 NSCLC,> 100 µM
same,TGI,HOP-92 NSCLC,> 100 µM
same,TGI,MOLT-4 leukemia,> 100 µM
same,TGI,M14 melanoma,> 100 µM
same,TGI,786-0 renal,> 100 µM
same,TGI,OVCAR-4 ovarian,> 100 µM
same,TGI,ACHN renal,> 100 µM
same,TGI,DMS 114 small cell lung,42.7 µM
same,TGI,M19-MEL melanoma,> 100 µM
same,TGI,UO-31 renal,> 100 µM
same,TGI,KM12 colon,> 100 µM
same,TGI,OVCAR-5 ovarian,> 100 µM
same,TGI,HCT-116 colon,> 100 µM
same,TGI,IGROV1 ovarian,> 100 µM
same,TGI,EKVX NSCLC,> 100 µM
same,TGI,HCT-15 colon,> 100 µM
same,TGI,DMS 273 small cell lung,> 100 µM
same,TGI,HCC-2998 colon,> 100 µM
same,TGI,UACC-257 melanoma,> 100 µM
same,TGI,NCI-H460 lung,> 100 µM
same,TGI,COLO 205 colon,> 100 µM
same,TGI,SF-268 CNS,> 100 µM
same,TGI,SW-620 colon,> 100 µM
same,TGI,LXFL 529 NSCLC,89 µM
same,TGI,NCI-H522 lung,51.5 µM
same,TGI,HOP-62 NSCLC,> 100 µM
same,TGI,A498 renal,> 100 µM
same,TGI,SK-MEL-2 melanoma,> 100 µM
same,TGI,OVCAR-3 ovarian,> 100 µM
same,TGI,SF-539 CNS,> 100 µM
same,TGI,SK-MEL-28 melanoma,> 100 µM
same,TGI,U251 CNS,> 100 µM
same,TGI,UACC-62 melanoma,> 100 µM
same,TGI,KM20L2 colon,> 100 µM
same,TGI,NCI-H23 lung,> 100 µM
same,TGI,MALME-3M melanoma,> 100 µM
same,TGI,SK-OV-3 ovarian,> 100 µM
same,TGI,RPMI-8226 leukemia,> 100 µM
same,TGI,SNB-19 CNS,> 100 µM
same,TGI,SNB-75 CNS,> 100 µM
same,TGI,OVCAR-8 ovarian,> 100 µM
same,TGI,TK-10 renal,> 100 µM
same,TGI,SF-295 CNS,> 100 µM
same,TGI,DLD-1 colon,> 100 µM
same,TGI,K-562 leukemia,> 100 µM
same,TGI,A549 NSCLC,> 100 µM
same,TGI,SNB-78 CNS,> 100 µM
same,TGI,CCRF-CEM leukemia,> 100 µM
same,TGI,SK-MEL-5 melanoma,> 100 µM
same,TGI,SR leukemia,> 100 µM
same,TGI,LOX IMVI melanoma,> 100 µM
same,TGI,HL-60(TB) leukemia,48.7 µM
C=CCOC(=O)[C@@H]1C[C@@H](OC(C)(C)C)CN1C(=O)[C@@H]1[C@H]2OC(C)(C)O[C@H]2CN1C(=O)OCC1c2ccccc2-c2ccccc21,TGI,CAKI-1 renal,16.9 µM
same,TGI,NCI-H226 lung,47.7 µM
same,TGI,SN12C renal,32.2 µM
same,TGI,HT29 colon,33.1 µM
same,TGI,HOP-92 NSCLC,35 µM
same,TGI,MOLT-4 leukemia,34.4 µM
same,TGI,M14 melanoma,36 µM
same,TGI,RXF 393 renal,24.7 µM
same,TGI,786-0 renal,9.97 µM
same,TGI,OVCAR-4 ovarian,34.1 µM
same,TGI,ACHN renal,30.1 µM
same,TGI,UO-31 renal,0.614 µM
same,TGI,KM12 colon,11 µM
same,TGI,OVCAR-5 ovarian,32.9 µM
same,TGI,BT-549 breast,37.1 µM
same,TGI,T-47D breast,45 µM
same,TGI,HCT-116 colon,31.8 µM
same,TGI,IGROV1 ovarian,37.6 µM
same,TGI,EKVX NSCLC,10.6 µM
same,TGI,HCT-15 colon,39.4 µM
same,TGI,MCF7 breast,> 100 µM
same,TGI,PC-3 prostate,30.8 µM
same,TGI,HCC-2998 colon,30.7 µM
same,TGI,UACC-257 melanoma,35.4 µM
same,TGI,NCI-H460 lung,23.6 µM
same,TGI,COLO 205 colon,45.7 µM
same,TGI,SF-268 CNS,40.1 µM
same,TGI,SW-620 colon,43.4 µM
same,TGI,MDA-MB-435,34.7 µM
same,TGI,NCI-H522 lung,1.39 µM
same,TGI,HOP-62 NSCLC,4.51 µM
same,TGI,A498 renal,30.5 µM
same,TGI,SK-MEL-2 melanoma,> 55 µM
same,TGI,OVCAR-3 ovarian,35.2 µM
same,TGI,SF-539 CNS,28.9 µM
same,TGI,SK-MEL-28 melanoma,34.6 µM
same,TGI,HS 578T breast,42.5 µM
same,TGI,U251 CNS,28.8 µM
same,TGI,DU-145 prostate,8.12 µM
same,TGI,UACC-62 melanoma,34.5 µM
same,TGI,NCI-H23 lung,33.9 µM
same,TGI,MALME-3M melanoma,39.2 µM
same,TGI,MDA-MB-231 breast,33.1 µM
same,TGI,SK-OV-3 ovarian,31.6 µM
same,TGI,RPMI-8226 leukemia,32.3 µM
same,TGI,SNB-19 CNS,33 µM
same,TGI,SNB-75 CNS,33.9 µM
same,TGI,OVCAR-8 ovarian,15.3 µM
same,TGI,TK-10 renal,32.5 µM
same,TGI,SF-295 CNS,34.4 µM
same,TGI,MDA-N,33.4 µM
same,TGI,K-562 leukemia,> 56.9 µM
same,TGI,A549 NSCLC,31.9 µM
same,TGI,CCRF-CEM leukemia,36.3 µM
same,TGI,SK-MEL-5 melanoma,37 µM
same,TGI,SR leukemia,31.7 µM
same,TGI,LOX IMVI melanoma,4.87 µM
same,TGI,NCI/ADR-RES ovarian,9.87 µM
same,TGI,HL-60(TB) leukemia,29.1 µM
